According to paper PMC11048033, “Dual Anti-Inflammatory and Anticancer Activity of Novel 1,5-Diaryl Pyrazole Derivatives: Molecular Modeling, Synthesis, In Vitro Activity, and Dynamics Study” (Biomedicines, 2024):

Target: T1, Human COX-2 (Homo sapiens, UniProt P35354)
T1 construct: purchased Cayman Chemicals 701230
T1 sequence (P35354 18-604): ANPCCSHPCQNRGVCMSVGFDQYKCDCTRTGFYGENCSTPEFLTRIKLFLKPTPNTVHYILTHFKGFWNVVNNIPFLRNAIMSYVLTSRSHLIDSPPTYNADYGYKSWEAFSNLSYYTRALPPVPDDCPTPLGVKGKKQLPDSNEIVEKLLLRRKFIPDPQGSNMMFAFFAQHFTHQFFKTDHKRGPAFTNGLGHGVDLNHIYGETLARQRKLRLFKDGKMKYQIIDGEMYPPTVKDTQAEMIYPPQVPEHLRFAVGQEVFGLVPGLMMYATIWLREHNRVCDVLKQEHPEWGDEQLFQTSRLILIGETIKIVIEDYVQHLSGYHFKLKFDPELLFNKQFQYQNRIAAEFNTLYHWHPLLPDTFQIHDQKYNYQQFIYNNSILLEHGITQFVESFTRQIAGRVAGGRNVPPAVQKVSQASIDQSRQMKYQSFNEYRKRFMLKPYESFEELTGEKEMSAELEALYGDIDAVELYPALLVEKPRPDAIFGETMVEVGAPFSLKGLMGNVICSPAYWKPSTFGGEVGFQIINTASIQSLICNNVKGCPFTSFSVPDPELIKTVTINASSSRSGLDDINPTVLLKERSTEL
Experiment: In vitro COX-2 enzymatic assay (Cayman COX (human) Inhibitor Screening Assay Kit)
Format: biochemical
Method: The ability of the compounds to inhibit COX -2 (IC50 values, µM) was determined by using a “COX (human) Inhibitor Screening Assay Kit” procured from Cayman Chemicals (catalog number 701230). With a slight modification in the method as defined in the reference, the COX-2 inhibition assay was performed. Using the percent conversion of arachidonic acid (AA) to PGH2, the enzyme activity was calculated. By enzyme immunoassay PGF2α, which is produced from PGH2 by reduction with stannous chloride, is calculated. The test compounds’ stock solutions are prepared by dissolving in a minimum amount of DMSO. Human COX-2 (10 µL) in the presence of 10 µL of heme was suspended in 0.1M Tris-HCl buffer (pH 8.0) which contains 2 mM phenol and 5 mM EDTA. This was added to various concentrations of test compounds and, on incubating the solutions at 37 °C for 5 min, 10 µL of AA solution were added. Later, the COX reaction was stopped by adding 1M HCl (50 µL) after 2 min. The intensity of the yellow color which is produced as the product of the enzymatic reaction is determined spectrophotometrically. The percent inhibition was calculated by comparing the compound treated to different control incubations. […] The determinations are done in triplicate and the IC50 (µM) was determined using the concentration–inhibition response curve.
During the initiation of the inflammatory process, the COX enzyme plays a vital role in the progression of inflammatory response. The inflammatory mediators that arise due to the action of COX lead to the chemoattraction of neutrophils, macrophages, eosinophils, etc. […] This was carried out with the help of a COX (human) inhibitor screening assay kit (Item no. 701230) from Cayman chemicals. […] A test substance concentration was considered to be inhibitive when it inhibited human COX-1 or COX-2 by 50%. The compound’s selectivity was measured by its selectivity index values, derived as IC50 (COX-1)/IC50 (COX-2).

SMILES	Selectivity Index	% COX-2 Inhibition (0.781 μg/ml) [%]	% COX-2 Inhibition (1.562 μg/ml) [%]	% COX-2 Inhibition (3.125 μg/ml) [%]	% COX-2 Inhibition (6.25 μg/ml) [%]	% COX-2 Inhibition (12.5 μg/ml) [%]	% COX-2 Inhibition (25 μg/ml) [%]	% COX-2 Inhibition (50 μg/ml) [%]	% COX-2 Inhibition (100 μg/ml) [%]	% COX-2 Inhibition (250 μg/ml) [%]
Cc1cc(C=NNC(=O)c2cc(-c3ccc(Br)cc3)n(-c3ccc(S(N)(=O)=O)cc3)n2)cc(C)c1OCc1ccccc1 [Compound T5, 4-(3-(2-(4-(benzyloxy)-3,5-dimethylbenzylidene) hydrazine-1-carbonyl)-5-(4-bromophenyl)-1H-pyrazol-1-yl) benzenesulfonamide]	7.16	65.66 ± 1.05	72.1 ± 6.01	78.03 ± 2.98	84.28 ± 2.50	85.04 ± 2.38	86.71 ± 0.50	87.64 ± 1.43	88.64 ± 0.86	89.35 ± 0.86
NS(=O)(=O)c1ccc(-n2nc(C(=O)NN=Cc3cccc(Oc4ccccc4)c3)cc2-c2ccc(Cl)cc2)cc1 [Compound T3, 4-(5-(4-chlorophenyl)-3-(2-(3-phenoxybenzylidene) hydrazine-1-carbonyl)-1H-pyrazol-1-yl) benzenesulfonamide]	–	55.34 ± 1.03	61.82 ± 1.20	66.67 ± 0.96	71.48 ± 0.78	73.95 ± 0.27	76.28 ± 0.70	78.94 ± 0.72	81.06 ± 0.47	85.38 ± 0.73
